The values that follow come from US20150368248A1, “2-SUBSTITUTED-6-BIARYLMETHYLAMINO-9-CYCLOPENTYL-9H-PURINE DERIVATIVES, USE THEREOF AS MEDICAMENTS, AND PHARMACEUTICAL COMPOSITIONS” (UNIVERZITA PALACKEHO V OLOMOUCI, priority 2013, published 2015).

For orientation: melting point means the temperature of the solid-liquid transition.

Like-named read-outs stand apart in the source and are kept apart here. Some results are limits rather than exact numbers.

For data set [1], the system named is p53-regulated transcription in Arn8 cells. In words: p53-dependent transcriptional activity, β-galactosidase reporter. In kind it is cell-based. The settings on record: 24 h incubation. How it is done:
Stronger anticancer activity of the compounds is enhanced by its positive impact on stability and activity of the tumour suppressor p53. To measure p53-dependent transcriptional activity, β-galactosidase activity was quantified in the melanoma cell line Arn8, which had been established using stable transfection of cells with a p53-responsive reporter construct pRGCAfoslacZ (Frebung et al., Cancer Res., 52, 1992-6976). Briefly, after 24 h incubation with the inhibitors the Arn8 cells were permeabilized with 0.3% Triton X-100 for 15 min and then 4-methylumbelliferon-β-D-galactopyranoside was added as a substrate to the final concentration of 80 μM. After 1 h the fluorescence of product 4-methylumbelliferon was measured at 355/460 nm (ex/em) with a Fluoroskan Ascent microplate reader (Labsystems). Data in Tab. 8 present that series of 2-substituted-6-biarylmethylamino-9-cyclopentyl-9H-purine derivatives show a dose-dependent activatory effect on p53-regulated transcription, with the maximum impact observed between 100 and 500 nM concentrations for most of prepared compounds (Tab. 8).

The test system of data set [2] is caspase-3/7 activity in Hep3B cell line. In words: One-step cellular caspase-3/7 activity assay. Type of data set: cell-based, human. Particulars: 24 hours, 0 nM = 1.00. The method, then: (§1) Measurements of proapoptotic properties of new compounds were based on quantification of enzymatic activities of caspases, concretely caspases-3/7. Activity of cellular caspase-3/7 was measured according to Carrasco et al., 2003, BioTechniques, 34(5): 1064-67. Briefly, Hep3B and PLC/PRF/5 cells were incubated in the densities of 10000 cells/well in a 96-well plate overnight. Next day, the compounds in appropriate concentrations were added and cells were incubated for the 24 hours. After incubation, 3× caspase-3/7 assay buffer (150 mM HEPES pH 7.4, 450 mM NaCl, 150 mM KCl, 30 mM MgCl2, 1.2 mM EGTA, 1.5% Nonidet P40, 0.3% CHAPS, 30% sucrose, 30 mM DTT, 3 mM PMSF) with 150 μM Ac-DEVD-AMC as a substrate (Sigma-Aldrich) was added to the wells and plates were incubated at […]. The caspase-3/7 activity was measured after 6 hours using Fluoroskan Ascent microplate reader (Labsystems) at 346 nm/442 nm (excitation/emission).

For data set [3], the system named is caspase-3/7 activity in PLC/PRF/5 cell line. In words: One-step cellular caspase-3/7 activity assay. In kind it is cell-based, human. The settings on record: 24 hours incubation, relative to 0 nM = 1.00. The method, then:
as §1

Data set [4] has as its system Hep3B. In words: MTT cytotoxicity assay (Example 30). Type of data set: cell-based, human. Particulars: MTT, three days after drug addition, read-out: Inhibitory concentration IC50, Hep3B. How it is done: (§2) Cytotoxicity of the compounds is the major property determining their anticancer effect in vivo. One of the parameters used, as the basis for cytotoxicity assays, is the metabolic activity of viable cells.
(§3) We have been using the following cell lines: HUH-7 and PLC/PRF/5 cell lines were maintained in DMEM supplemented with 10% fetal bovine serum, penicillin (100 U/ml) and streptomycin (100 μg/ml). […] HepG2 cell line was maintained in EMEM supplemented with 10% fetal bovine serum, sodium pyruvate (0.11 g/1), penicillin (100 U/ml) and streptomycin (100 μg/ml). All cell lines were cultivated at 37° C. in 5% CO2. For cytotoxicity assays, 3000 cells (10000 cells in case of HepG2 cell line) were seeded into each well of 96 well plate and the next day tested compounds were added at various concentrations in triplicates. Three days after drug addition MTT stock solution (5 mg/ml) was added into each well and incubated for 4 h. After this incubation period, produced formazan was dissolved by DMSO and final absorbance was measured at 570 nm with Synergy H4 Hybrid Multi-Mode Microplate Reader.

In data set [5] the test system is HCC-1.1 (3sp). In words: MTT cytotoxicity assay (Example 30). Type of data set: cell-based. The settings on record: Homo sapiens, 72 h; MTT, three days after drug addition; read-out: Inhibitory concentration IC50, 3sp. How it is done:
as §2, §3
In general terms: Tetrazolium dyes change colour on reduction, which living cells bring about.

Data set [6] concerns human umbilical vein endothelial cells (HUVECs). In words: Migration scratch assay. Type of data set: cell-based. More on the design: key to Wound area: ++: open; +: partly open; 0: closed. The settings on record: 24 h. The method, then:
Migration assay was performed as described previously (Krystof et al., 2011, Eur J Med Chem.; 46(9):4289-94). Briefly, confluent HUVECs were scratched and immediately treated for 24 h with various doses of compounds. After incubation each well was photographed using a DP Controller system (Olympus) connected to a Olympus BX50 microscope. Migration was expressed as the proportion of pixels of the wound area in the image that were not covered by cells using “in house” software.

In data set [7] the test system is human umbilical vein endothelial cells (HUVEC). In words: HUVEC proliferation, Calcein AM. Type of data set: cell-based. Particulars: read-out: Inhibitory concentration for HUVEC cells - IC50. The method, then: Novel 2-substituted-6-biarylmethylamino-9-cyclopentyl-9H-purine derivatives were tested for their potential anti-angiogenic properties; we analyzed its influence on the proliferation (Tab. 9), migration and tube formation of human umbilical vein endothelial cells (HUVEC). Confluent HUVECs were seeded in 96-well microtiter plates to detect their proliferation for 24 or 72 h using Calcein AM solution (Invitrogen) and a Fluoroskan Ascent microplate reader (Labsystems) as described previously (Krystof et al., 2011, Eur J Med Chem. 2011 September; 46(9):4289-94).

`NC1CCC(Nc2nc(NCc3ccc(-c4ccccc4O)cc3)c3ncn(C4CCCC4)c3n2)CC1` (centres unmarked) [BP17, N^2-(4-amino-cyclohexyl)-9-cyclopentyl-N^6-(2′-hydroxy-biphenyl-4-ylmethyl)-9H-purine-2,6-diamine]: the melting point was 168 to 170 °C. Moreover, the “Concentration of maximum activation” value in data set [1] is listed as 950 nM. Besides, the “Relative caspase-3/7 activity in Hep3B cell line” value in data set [2] (200 nM) turned out to be 0.89. For the same molecule, the “Relative caspase-3/7 activity in Hep3B cell line” value in data set [2] (400 nM) came out at 0.87. The “Relative caspase-3/7 activity in Hep3B cell line” value in data set [2] (800 nM) came to 0.96. For the same molecule, the “Relative caspase-3/7 activity in Hep3B cell line” value in data set [2] (1600 nM) is given as 0.63. The “Relative caspase-3/7 activity in PLC/PRF/5 cell line” value in data set [3] (compound concentration 160 nM) is given as 1.08. Besides, the “Relative caspase-3/7 activity in PLC/PRF/5 cell line” value in data set [3] (compound concentration 320 nM) is on record as 1.09. Moreover, the “Relative caspase-3/7 activity in PLC/PRF/5 cell line” value in data set [3] (compound concentration 640 nM) turned out to be 0.99. Moreover, the “Relative caspase-3/7 activity in PLC/PRF/5 cell line” value in data set [3] (compound concentration 1280 nM) is 1.20.
The molecule `CC(C)(O)CNc1nc(NCc2ccc(Br)cc2)c2ncn(C3CCCC3)c2n1` [BP114, 1-[6-(4-bromo-benzylamino)-9-cyclopentyl-9H-purine-2-ylamino]-2-methyl-propan-2-ol] came in with a melting point of 108 to 110 °C.
In turn, `Clc1nc(NCc2ccc(-n3cccn3)cc2)c2ncn(C3CCCC3)c2n1` [BP23, (2-chlor-9-cyclopentyl-9H-purine-6-yl)-(4-pyrazol-1-yl-benzyl)-amine] yielded a melting point of 165 to 167 °C. Moreover, the IC50 in data set [4] (Homo sapiens, Hep3B, 72 h) worked out at 0.432 µM. For the same molecule, the IC50 in data set [5] is 0.468 µM.
In the case of `CC[C@H](CO)Nc1nc(NCc2ccccc2)c2ncn(C(C)C)c2n1` [roscovitine, reference compound], the “Concentration of maximum activation” value in data set [1] is >10000 nM. The Wound area in data set [6] (100 nM) and in data set [6] (1000 nM) was 0 throughout.
Take `Clc1nc(NCc2ccc(-c3ccco3)cc2)c2ncn(C3CCCC3)c2n1` [BP118, (2-chloro-9-cyclopentyl-9H-purine-6-yl)-(4-furan-2-yl-benzyl)-amine]: the melting point is 135 to 137 °C.
Turning to `Clc1nc(NCc2ccc(-c3ccco3)nc2)c2ncn(C3CCCC3)c2n1` [BP116, (2-chloro-9-cyclopentyl-9H-purine-6-yl)-(6-furan-2-yl-pyridin-3-ylmethyl)-amine], the melting point is 119 to 122 °C. In addition, the IC50 in data set [4] (Homo sapiens, Hep3B, 72 h) stood at 0.298 µM. The IC50 in data set [5] was 0.371 µM.
For `Cn1cnc2c(NCc3ccccc3)nc(NCCO)nc21` [olomoucine, reference compound], the Wound area in data set [6] (100 nM) and in data set [6] (1000 nM) was 0 each time.
`CC(C)(O)CNc1nc(NCc2ccc(-c3ccco3)cc2)c2ncn(C3CCCC3)c2n1` [BP115, 1-[9-Cyclopentyl-6-(4-furan-2-yl-benzylamino)-9H-purine-2-ylamino]-2-methyl-propan-2-ol] displayed a melting point of 121 to 123 °C. The “Concentration of maximum activation” value in data set [1] came out at 870 nM. Moreover, the “Relative caspase-3/7 activity in Hep3B cell line” value in data set [2] (200 nM) came out at 0.94. The “Relative caspase-3/7 activity in Hep3B cell line” value in data set [2] (400 nM) amounted to 1.05. Also, the “Relative caspase-3/7 activity in Hep3B cell line” value in data set [2] (800 nM) worked out at 1.19. Besides, in data set [2] (1600 nM), the “Relative caspase-3/7 activity in Hep3B cell line” value is listed as 0.81. Also, in data set [3] (compound concentration 160 nM), the “Relative caspase-3/7 activity in PLC/PRF/5 cell line” value was determined as 1.17. The “Relative caspase-3/7 activity in PLC/PRF/5 cell line” value in data set [3] (compound concentration 320 nM) amounted to 1.05. In data set [3] (compound concentration 640 nM), the “Relative caspase-3/7 activity in PLC/PRF/5 cell line” value stood at 0.88. For the same molecule, the “Relative caspase-3/7 activity in PLC/PRF/5 cell line” value in data set [3] (compound concentration 1280 nM) worked out at 0.98.
As to `Clc1nc(NCc2ccc(-c3cccs3)nc2)c2ncn(C3CCCC3)c2n1` [BP29, (2-chlor-9-cyclopentyl-9H-purine-6-yl)-(6-thiophen-2-yl-pyridin-3-ylmethyl)-amine], the melting point was 111 to 114 °C. In addition, the IC50 in data set [4] (Homo sapiens, Hep3B, 72 h) is 0.792 µM. Further, the IC50 in data set [5] was determined as 0.843 µM.
For `CCC(CO)Nc1nc(NCc2ccc(-c3ccccn3)cc2)c2ncn(C(C)C)c2n1` (centres unmarked) [CR8, reference compound], the results for the IC50 in data set [4], in data set [7] (24 h) and in data set [7] (72 h) were > 2 µM, > 50 µM and 0.61 µM, respectively. Moreover, the “Concentration of maximum activation” value in data set [1] amounted to 1600 nM. Besides, the figures for the Wound area in data set [6] (100 nM) and in data set [6] (1000 nM) were 0 and “+”, respectively.
The molecule `Clc1nc(NCc2ccc(Br)nc2)c2ncn(C3CCCC3)c2n1` had a melting point of 178 to 179 °C.
In the case of `Clc1nc(NCc2ccc(Br)cc2)c2ncn(C3CCCC3)c2n1` [BP101, (4-bromo-benzyl)-(2-chloro-9-cyclopentyl-9H-purine-6-yl)-amine], the melting point fell in the range of 152 to 154 °C.
